Molecules are shown by their SMILES.

For the data set, the system named is Blood. The data set is described as follows: Drug level in Homo sapiens (human) whole blood assessed as retention time by UPLC-TOF-MS analysis.
For the compound `COC(=O)C1=C(C)NC(C)=C(C(=O)OC(C)C)C1c1cccc2nonc12` (centres undefined) [ISRADIPINE], the Retention_time was determined as 7 min.
Turning to `CNC1(c2ccccc2Cl)CCCCC1=O` (centres undefined) [KETAMINE], the Retention_time is 3.57 min.
The figure for `CCC(=O)C1(c2cccc(O)c2)CCN(C)CC1` [KETOBEMIDONE] is 3.22 min; for `CC(CCc1ccccc1)NCC(O)c1ccc(O)c(C(N)=O)c1` (centres undefined) [LABETALOL] it is 4.95 min.
`Nc1nnc(-c2cccc(Cl)c2Cl)c(N)n1` [LAMOTRIGINE]: the Retention_time is on record as 3.78 min.
`COC(=O)C1=C(C)NC(C)=C(C(=O)OC(C)(C)CN(C)CCC(c2ccccc2)c2ccccc2)C1c1cccc([N+](=O)[O-])c1` (centres undefined) [LERCANIDIPINE]: the Retention_time is 6.8 min.
For the compound `COc1ccc2c(c1)N(C[C@H](C)CN(C)C)c1ccccc1S2` [LEVOMEPROMAZINE], the Retention_time is recorded as 5.98 min.
The figure for `CN1CC[C@]23CCCC[C@H]2[C@H]1Cc1ccc(O)cc13` [LEVORPHANOL] is 3.82 min.
On to `CN(C)C(=O)C(CCN1CCC(O)(c2ccc(Cl)cc2)CC1)(c1ccccc1)c1ccccc1` [LOPERAMIDE], for which the Retention_time is 6.37 min.
For `O=C1Nc2ccc(Cl)cc2C(c2ccccc2Cl)=NC1O` (centres undefined) [LORAZEPAM], the Retention_time worked out at 6.02 min.
Consider `CN1C(=O)C(O)N=C(c2ccccc2Cl)c2cc(Cl)ccc21` (centres undefined) [LORMETAZEPAM], for which the Retention_time is reported as 6.41 min.
`CCCCc1nc(Cl)c(CO)n1Cc1ccc(-c2ccccc2-c2nn[nH]n2)cc1` [LOSARTAN]: the Retention_time came out at 6.09 min.
On to `CCN(CC)C(=O)[C@@H]1C=C2c3cccc4[nH]cc(c34)C[C@H]2N(C)C1` [LYSERGIDE], for which the Retention_time is on record as 4.88 min.
For the compound `CN1CCN=C(c2ccccc2)c2cc(Cl)ccc21` [MEDAZEPAM], the Retention_time is listed as 5.45 min.
With `CCOC(=O)C1(c2ccccc2)CCN(C)CC1` [MEPERIDINE] the figure was 4.68 min.
On to `Cc1cccc(C)c1NC(=O)C1CCCCN1C` (centres undefined) [MEPIVACAINE], for which the Retention_time is 3.46 min.
Turning to `COc1cc(CCN)cc(OC)c1OC` [MESCALINE], the Retention_time is 2.77 min.
Turning to `CCC(=O)C(CC(C)N(C)C)(c1ccccc1)c1ccccc1` (centres undefined) [METHADONE], the Retention_time was determined as 6.03 min.
As for `CN[C@@H](C)Cc1ccccc1` [METHAMPHETAMINE], the Retention_time was 2.86 min.
The figure for `Cc1ccccc1-n1c(C)nc2ccccc2c1=O` [METHAQUALONE] is 6.02 min; for `COC(=O)C(c1ccccc1)C1CCCCN1` (centres undefined) [METHYLPHENIDATE] it is 4.16 min.
The figure for `CCN(CC)CCNC(=O)c1cc(Cl)c(N)cc1OC` [METOCLOPRAMIDE] is 3.64 min; for `CN1CCN2c3ccccc3Cc3ccccc3C2C1` (centres undefined) [MIANSERIN] it is 5.48 min; for `Cc1ncc2n1-c1ccc(Cl)cc1C(c1ccccc1F)=NC2` [MIDAZOLAM] it is 5.45 min.
With `CNC(C)Cc1ccc2c(c1)OCO2` (centres undefined) [MIDOMAFETAMINE] the figure was 2.89 min; with `CN1CCN2c3ncccc3Cc3ccccc3C2C1` (centres undefined) [MIRTAZAPINE], 3.91 min; with `O=C(NCCN1CCOCC1)c1ccc(Cl)cc1` [MOCLOBEMIDE], 3.39 min.
As to `C=CCN1CC[C@]23c4c5ccc(O)c4O[C@H]2C(=O)CC[C@@]3(O)[C@H]1C5` [NALOXONE], the Retention_time was 2.46 min.
The figure for `COC(=O)C1=C(C)NC(C)=C(C(=O)OC)C1c1ccccc1[N+](=O)[O-]` [NIFEDIPINE] is 6.4 min; for `COCCOC(=O)C1=C(C)NC(C)=C(C(=O)OC(C)C)C1c1cccc([N+](=O)[O-])c1` (centres undefined) [NIMODIPINE] it is 7.14 min.
With `O=C1CN=C(c2ccccc2)c2cc([N+](=O)[O-])ccc2N1` [NITRAZEPAM] the figure was 5.8 min; with `O=C1CC(=O)N(c2ccccc2)c2cc(Cl)ccc2N1` [NOR-CLOBAZAM], 5.61 min.
With `NCCC(Oc1ccc(C(F)(F)F)cc1)c1ccccc1` (centres undefined) [NORFLUOXETINE] the figure was 6 min; with `CNCCC=C1c2ccccc2CCc2ccccc21` [NORTRIPTYLINE], 5.92 min.
Take `COc1ccc2c(c1OC)C(=O)O[C@@H]2[C@H]1c2c(cc3c(c2OC)OCO3)CCN1C` [NOSCAPINE]: the Retention_time is 4.99 min.
Take `Cc1ccccc1C(OCCN(C)C)c1ccccc1` (centres undefined) [ORPHENADRINE]: the Retention_time is recorded as 5.75 min.
In the case of `NC(=O)N1c2ccccc2CC(=O)c2ccccc21` [OXCARBAZEPINE], the Retention_time is recorded as 5.29 min.
With `COc1ccc2c3c1O[C@H]1C(=O)CC[C@@]4(O)[C@@H](C2)N(C)CC[C@]314` [OXYCODONE], the Retention_time is 2.67 min.
With `CN1CC[C@]23c4c5ccc(O)c4O[C@H]2C(=O)CC[C@@]3(O)[C@H]1C5` [OXYMORPHONE] the figure was 1.78 min; with `COc1ccc(CC(C)N)cc1` (centres undefined) [PARA-METHOXYAMPHETAMINE], 2.91 min.
With `Fc1ccc([C@@H]2CCNC[C@H]2COc2ccc3c(c2)OCO3)cc1` [PAROXETINE] the figure was 5.66 min; with `O=C1CN=C(c2ccccc2Cl)c2cc(Br)ccc2N1` [PHENAZEPAM], 6.45 min.
With `c1ccc(C2(N3CCCCC3)CCCCC2)cc1` [PHENCYCLIDINE], the Retention_time is on record as 5.23 min.
Turning to `CC(C)(N)Cc1ccccc1` [PHENTERMINE], the Retention_time was 3.08 min.
For `O=c1[nH]c2ccccc2n1C1CCN(CCCC(c2ccc(F)cc2)c2ccc(F)cc2)CC1` [PIMOZIDE], the Retention_time came out at 6.28 min.
Take `CC(C)NCC(O)COc1cccc2[nH]ccc12` (centres undefined) [PINDOLOL]: the Retention_time turned out to be 3 min.
As to `O=C1CN=C(c2ccccc2)c2cc(Cl)ccc2N1CC1CC1` [PRAZEPAM], the Retention_time is on record as 7.25 min.
With `OC(CCN1CCCC1)(c1ccccc1)C1CCCCC1` (centres undefined) [PROCYCLIDINE] the figure was 5.78 min; with `CC(CN1c2ccccc2Sc2ccccc21)N(C)C` (centres undefined) [PROMETHAZINE], 5.7 min.
`CCC(=O)O[C@](Cc1ccccc1)(c1ccccc1)[C@H](C)CN(C)C` [PROPOXYPHENE]: the Retention_time is 5.98 min.
With `CC(C)NCC(O)COc1cccc2ccccc12` (centres undefined) [PROPRANOLOL] the figure was 5.28 min; with `CN[C@@H](C)[C@@H](O)c1ccccc1` [PSEUDOEPHEDRINE], 2.28 min.
For the compound `COc1ccc(CN(CCN(C)C)c2ccccn2)cc1` [PYRILAMINE], the Retention_time was 4.57 min.
The figure for `Fc1ccccc1C1=NCC(=S)N(CC(F)(F)F)c2ccc(Cl)cc21` [QUAZEPAM] is 7.59 min; for `OCCOCCN1CCN(C2=Nc3ccccc3Sc3ccccc32)CC1` [QUETIAPINE] it is 5.35 min; for `CCOc1ccccc1OC(c1ccccc1)C1CNCCO1` (centres undefined) [REBOXETINE] it is 5.6 min.
Turning to `OCc1cc(C(O)CNCCCCCCOCCCCc2ccccc2)ccc1O` (centres undefined) [SALMETEROL], the Retention_time is 6.14 min.
Turning to `C#CCN(C)[C@H](C)Cc1ccccc1` [SELEGILINE], the Retention_time was found to be 3.55 min.
In the case of `O=C1NCCN1CCN1CCC(c2cn(-c3ccc(F)cc3)c3ccc(Cl)cc23)CC1` [SERTINDOLE], the Retention_time was 6.3 min.
Regarding `CN[C@H]1CC[C@@H](c2ccc(Cl)c(Cl)c2)c2ccccc21` [SERTRALINE], the Retention_time is reported as 6.04 min.
The figure for `CC(C)NCC(O)c1ccc(NS(C)(=O)=O)cc1` (centres undefined) [SOTALOL] is 2.02 min; for `CCN1CCCC1CNC(=O)c1cc(S(N)(=O)=O)ccc1OC` (centres undefined) [SULPIRIDE] it is 2.21 min; for `CC(N)Cc1ccc2c(c1)OCO2` (centres undefined) [TENAMFETAMINE] it is 2.7 min.
For the compound `CC(C)(C)NCC(O)c1cc(O)cc(O)c1` (centres undefined) [TERBUTALINE], the Retention_time is recorded as 1.93 min.
The figure for `CN1[C@H]2CC[C@@H]1[C@@H](C(=O)O)[C@@H](OC(=O)c1ccccc1)C2` [THERACYS] is 3.48 min.
With `CCCCNC(=O)NS(=O)(=O)c1ccc(C)cc1` [TOLBUTAMIDE], the Retention_time was 6.16 min.
The figure for `COc1cccc(C2(O)CCCCC2CN(C)C)c1` (centres undefined) [TRAMADOL] is 4.09 min; for `Cc1nnc2n1-c1ccc(Cl)cc1C(c1ccccc1Cl)=NC2` [TRIAZOLAM] it is 6.15 min; for `CC(CN(C)C)CN1c2ccccc2CCc2ccccc21` (centres undefined) [TRIMIPRAMINE] it is 6.05 min.
`COc1ccc(C(CN(C)C)C2(O)CCCCC2)cc1` (centres undefined) [VENLAFAXINE]: the Retention_time is on record as 5.06 min.
With `CCN(C(C)=O)c1cccc(-c2ccnc3c(C#N)cnn23)c1` [ZALEPLON] the figure was 5.68 min; with `CN(C)CCc1c[nH]c2ccc(C[C@H]3COC(=O)N3)cc12` [ZOLMITRIPTAN], 2.7 min; with `Cc1ccc(-c2nc3ccc(C)cn3c2CC(=O)N(C)C)cc1` [ZOLPIDEM], 4.78 min.
The figure for `CN1CCN(C(=O)OC2c3nccnc3C(=O)N2c2ccc(Cl)cn2)CC1` (centres undefined) [ZOPICLONE] is 3.88 min.
